Assay [1] has as its system primary mouse hepatocytes. The assay can be described thus: Oil Red-O lipid accumulation in primary mouse hepatocytes. Type of assay: cell-based. To be noted: for lipid accumulation by oleic acid: overexpression, 200 μM oleic acid 72 hours, FIG. 9B. On the procedure:
(§1) HepG2 cells and primary mouse hepatocytes were separately seeded in a 6-well plate at a density of 4×10^5 cells per each well, and then transfected with GFP-14-3-3β DNA (1 μg) or GFP-14-3-3γ DNA (1 μg) and si-14-3-3β (10 μM, Santa Cruz) or si-14-3-3γ (10 μM, Santa Cruz) using an E-fection plus reagent (Lugen). A ratio of DNA to the E-fection plus reagent was 1:2, and this method was performed according to a manufacturer's manual. […] The stained cells were bleached with 1 ml of isopropanol and analyzed at a wavelength of 550 nm using a DU530 spectrophotometer (Beckman Instruments, Palo Alto, Calif.).

Assay [2] deals with HepG2 cells. The assay can be described thus: mRNA expression by PCR in HepG2 cells. Type of assay: cell-based, human. To be noted: for mRNA expression of SREBP-1c and FAT/CD36: HepG2, overexpression, 200 μM oleic acid 72 hours, FIG. 7A. On the procedure:
For mRNA extraction, the corresponding cells were lysed with 1 ml/well of TRIzol (Invitrogen), 200 μl of chloroform was added thereto and mixed well, the resultant cells were maintained at room temperature for 5 minutes and then centrifuged at 12,000×g and 4° C. for 15 minutes, the obtained supernatant was mixed with 500 μl of isopropanol and then put on ice for 10 minutes, the resulting supernatant was centrifuged at 12,000×g and 4° C. for 15 minutes to remove a supernatant, and then pellets were dissolved with tertiary distilled water treated with diethyl pyrocarbonate (DEPC). 2 μg of mRNA was synthesized into cDNA using a Superscript First Strand cDNA Synthesis Kit (Bioneer, Daejeon, South Korea) and the synthesized cDNA as a template was amplified through polymerase chain reaction (PCR) using primers specific to PPARγ2, 14-3-3β, 14-3-3γ, SREBP-1c, SCD-1, ACC, FABP, FAT/CD36, and β-actin of humans, and was amplified through real-time PCR using primers specific to PPARγ2, 14-3-3β, 14-3-3γ, SREBP-1c, FAT/CD36, and GAPDH of mice. β-actin and GAPDH were used as controls to see whether mRNAs of the respective cells were compared in the same amount.
HepG2 cells were seeded in a 6-well plate at a density of 4×10^5 cells per each well, and then transfected with GFP-14-3-3β DNA (4 μg) or GFP-14-3-3γ DNA (4 μg) using an E-fection plus reagent (Lugen). A ratio of DNA to the E-fection plus reagent was 1:2, and this method was performed according to a manufacturer's manual. After transfection, […], and for mRNA extraction, the corresponding cells were lysed with 1 ml/well of TRIzol (Invitrogen), 200 μl of chloroform was added thereto and mixed well, the resultant cells were maintained at room temperature for 5 minutes and then centrifuged at 12,000×g and 4° C. for 15 minutes, the obtained supernatant was mixed with 500 μl of isopropanol and then put on ice for 10 minutes, and the resulting supernatant was centrifuged at 12,000×g and 4° C. for 15 minutes to remove a supernatant, and then pellets were dissolved with tertiary distilled water treated with diethyl pyrocarbonate (DEPC). 2 μg of mRNA was synthesized into cDNA using a Superscript First Strand cDNA Synthesis Kit (Bioneer, Daejeon, South Korea) and the synthesized cDNA as a template was amplified through polymerase chain reaction (PCR) using primers specific to PPARγ2 (SEQ ID NOS: 1 and 2), 14-3-3β (SEQ ID NOS: 3 and 4), 14-3-3γ (SEQ ID NOS: 5 and 6), SREBP-1c, FAT/CD36, and β-actin of humans, and was amplified through real-time PCR using primers specific to SREBP-1c, FAT/CD36, and GAPDH of mice. β-actin and GAPDH were used as controls to see whether mRNAs of the respective cells were compared in the same amount.

In assay [3] the test system is HepG2 cells. Description: Oil Red-O lipid accumulation in HepG2 cells. The assay is classed as cell-based, human. To be noted: for lipid accumulation by oleic acid: HepG2, overexpression, 200 μM oleic acid 72 hours, FIG. 9B. On the procedure: as §1
Assay [4] relates to primary mouse hepatocytes. The assay can be described thus: Triglyceride colorimetric assay in primary mouse hepatocytes. Type of assay: cell-based. To be noted: FIG. 10A. On the procedure:
HepG2 cells and primary mouse hepatocytes were separately seeded in a 6-well plate at a density of 4×10^5 cells per each well, and then transfected with GFP-14-3-3β DNA (1 μg) or GFP-14-3-3γ DNA (1 μg) and si-14-3-3β (10 μM, Santa Cruz) or si-14-3-3γ (10 μM, Santa Cruz) using an E-fection plus reagent (Lugen). A ratio of DNA to the E-fection plus reagent was 1:2, and this method was performed according to a manufacturer's manual. After transfection, the cells were treated with 200 μM of oleic acid (OA) for 72 hours, and the amount of triglycerides was measured using a triglyceride colorimetric assay kit (Cayman Chemical). The corresponding cells were washed with ice-cold PBS and then scraped using a standard diluent assay reagent, the scrapping process was repeated using a sonicator 20 times to lyse the cells, and the lysed cells were reacted with an enzyme buffer solution for 15 minutes, followed by measurement using an ELISA reader (Bio-Rad Laboratories, Inc) at a wavelength of 550 nm.

Setting [5] is: primary mouse hepatocytes, overexpression, 200 μM oleic acid 72 hours.

For “14-3-3β: 14-3-3 isoform protein overexpressed by DNA transfection; increases the transcriptional activity of PPARγ2 by binding to PPARγ2”, the “lipid accumulation by oleic acid” value in assay [1] and in assay [3] was “increased” throughout. Besides, in assay [2], the “mRNA expression of SREBP-1c and FAT/CD36” value is “further increased”. For the same molecule, the triglyceride accumulation result in assay [4] (setting [5]) was “further increased”.
In the case of “14-3-3γ: 14-3-3 isoform protein overexpressed by DNA transfection; decreases the transcriptional activity of PPARγ2; proposed active ingredient”, the “lipid accumulation by oleic acid” value in assay [1] and in assay [3] was “reduced” in each case. Moreover, the “mRNA expression of SREBP-1c and FAT/CD36” value in assay [2] is listed as “reduced”. Besides, the triglyceride accumulation entry in assay [4] (setting [5]) is listed as “reduced”.
Take `CCCCCCCC/C=C\CCCCCCCC(=O)O` [oleic acid]: the lipid accumulation result is “increased” in assay [1] (concentration-dependent treatment of oleic acid, FIG. 9A) and “increased” in assay [3] (HepG2, concentration-dependent treatment of oleic acid, FIG. 9A). For the same molecule, the “mRNA expression of PPARγ2” value in assay [2] (HepG2, oleic acid concentration-dependent, FIG. 6A) was “increased”. Also, in assay [2] (HepG2, oleic acid concentration-dependent, FIG. 6C), the “mRNA expression of lipid metabolism-associated genes (PPARγ2 target genes)” value is “increased”. Further, the “mRNA expression amounts of 14-3-3β and 14-3-3γ” value in assay [2] (HepG2, oleic acid treatment, FIG. 6A) is “no changes”. Besides, the triglyceride accumulation entry in assay [4] (primary mouse hepatocytes treated with oleic acid) was “increased”.

For the origin of these results see patent US10688197B2, “Non-alcoholic fatty liver regulator 14-3-3 protein” (Korea University Research and Business Foundation, priority 2015, dated 2020).
